Data set [1] in a line: Human plasma protein binding (PPB) assay, equilibrium dialysis. The data set is classed as in vitro ADME. The settings on record: non-diluted plasma, pH 7.4, percentage of plasma protein bounded compound, 5 hours dialysis, read-out: hPPB. The method, then:
In an embodiment, human plasma protein binding (PPB) assay was carried out. The assay was performed in a multiple-use 96-well dialysis unit (HTD96b dialyzer). Each individual well unit consisted of 2 chambers separated by a vertically aligned dialysis membrane of predetermined pore size (MWCO 12-14 kDa). 120 μl of non-diluted plasma spiked with the compound (1 μM, 1% final DMSO concentration) was added to one chamber and the same volume of phosphate buffer saline pH 7.4 to the other chamber. HTD96b dialyzer was covered with adhesive sealing film and incubated at 37° C. and 100 rpm orbital shaking for 5 hours. Verapamil was also evaluated in parallel as reference compound. For sample preparation, an aliquot of the content of each chamber was mixed with the same volume of the blank opposite matrix. […] Supernatants were analysed using a Shimadzu VP HPLC system with a reverse phase column, coupled with a tandem mass spectrometer API 3000 (PE Sciex). […]
The percentage of plasma protein bounded compound and its recovery were calculated using the equations below: […]
The percentage of plasma protein bounded compound and its recovery were calculated using the values obtained for each compound in the quantification of the 3 samples (in buffer, plasma and standard solution).
(In equilibrium dialysis only unbound substance equilibrates across the membrane.)

Data set [2] in a line: Distribution coefficient (Log D) determination, octanol/PBS pH 7.4. The data set is classed as physicochemical. The settings on record: octanol / phosphate buffer saline pH 7.4. How it is done:
In an embodiment, distribution coefficient (Log D) determination assay was carried out. Test compounds were incubated in Eppendorf-type polypropylene microtubes in triplicates: a 5 μL aliquot of a 10 mM DMSO stock of each test compound were added into the previously mutually saturated mixture containing 500 μL of phosphate buffer saline (pH 7.4) and 500 μL of octanol. The solution was allowed to mix in a rotator for 1 hour at 30 rpm. Phase separation was assured by centrifugation. The octanol phase was diluted 100-fold with 40% acetonitrile in water for analysis, and aqueous phase was analysed without dilution. Mebendazole was used as a reference compound. All samples (both phases) were analysed in a Shimadzu VP HPLC system with a reverse phase column, coupled with tandem mass spectrometer API 3000 (PE Sciex). The TurbolonSpray ion source was used in positive ion mode. Acquisition and analysis of the data were performed using Analyst 1.5.2 software. Distribution coefficients of the tested compounds were calculated as the logarithm of the partition ratios (D) in both solvents, according to the equation below.
[formula] • where: So—peak area of the compound in octanol phase • Sp—peak area of the compound in phosphate buffer saline phase

Another data set can be described thus: PAMPA assay, GIT model. Type of data set: in vitro ADME. To be noted: log Papp; pH 7.4, 50 μM, 4 hours, room temperature. How it is done: In an embodiment, PAMPA assay was carried. All steps of PAMPA assay were carried out according to pION Inc. PAMPA Explorer™ Manual. The main principle of the assay is the compound incubation in the donor chamber with aqueous buffer, which is separated from the acceptor chamber, with another buffer, by a phospholipid or hydrocarbon membrane fixed on a filter support. After the test, concentrations in the corresponding donor and acceptor chambers are measured and permeability is calculated. GIT model was simulated using GIT-0 phospholipid mix. Verapamil and quinidine (high permeability) and ranitidine (low permeability) were used as reference compounds. All compounds were tested in quadruplicates. […] After incubation, aliquots from both chambers were transferred to optic UV-Vis plates and absorbance was recorded in the range of 202-500 nm in 4 nm steps. Compounds with low UV-Vis signal were evaluated by LC-MS/MS (using a Shimadzu VP HPLC system with a reverse phase HPLC column, coupled with tandem mass spectrometer API 3000 (PE Sciex) and TurbolonSpray ion source used in positive ion mode; acquisition and analysis of the data were performed using Analyst 1.5.2 software (PE Sciex)).
The apparent permeability coefficient was calculated using the formula below. […]
The apparent permeability coefficient was calculated for each compound (log Papp).
(In PAMPA a lipid-coated filter parts donor from acceptor wells.)

A short description of data set [3]: Stability in human plasma (PS) assay. Type of data set: in vitro ADME. The settings on record: 37° C., 120 minutes, read-out: t1/2 (min) hPS. How it is done: In an embodiment, stability in human plasma (PS) assay was carried out. Test compounds (1 μM, final DMSO concentration 1%) were incubated in 5 aliquots of 70 μL each (one for each time point), in duplicates, at 37° C. with 100 rpm orbital shaking. Five time points over a duration 120 minutes have been analysed. Two reference compounds were analysed in parallel. The reactions were stopped by the addition of 420 μL of acetonitrile-water mixture (90:10) and subsequent plasma proteins sedimentation were achieved by centrifugation. Supernatants were analysed in a Shimadzu VP HPLC system with a reverse phase column, coupled with a tandem mass spectrometer API 3000 (PE Sciex). Both the positive and negative ion modes of the TurbolonSpray ion source were used. Acquisition and analysis of the data were performed using Analyst 1.5.2 software (PE Sciex). The percentage of the test compounds remaining after incubation in plasma and their half-lives (T1/2) were calculated.

Where only a bound is given, the exact number is not on record here.

What is called logD is lipophilicity at a set pH, counting ionised and neutral species. Low values mean a more hydrophilic compound, high ones a more lipophilic compound. For `COc1cccc2ccc(N3CCC(c4nc(-c5ccc(OC(F)(F)F)cc5)no4)CC3)nc12` [Compound 3, 5-(1-(8-methoxyquinolin-2-yl)piperidin-4-yl)-3-(4-(trifluoromethoxy)phenyl)-1,2,4-oxadiazole], in data set [1], the fraction unbound at 5 h, 1 μM was at most 0.001. In data set [2], the logD is 5.34. Besides, the “GIT PAMPA” value in the data set “PAMPA assay, GIT model” was −4.8 log[10^−6 cm/s]. In addition, the half-life at 1 μM in data set [3] was over 240 min.

For the origin of these results see US20240279217A1, “Heterocyclic compounds for the treatment of tuberculosis” (TECNIMEDE - SOCIEDADE TÉCNICO-MEDICINAL, SA, priority 2021, published 2024).
